Paper PMC8955938, “c-Myc Protein Level Affected by Unsymmetrical Bisacridines Influences Apoptosis and Senescence Induced in HCT116 Colorectal and H460 Lung Cancer Cells” (International Journal of Molecular Sciences, 2022)

Legend:
Type in all cases: cell-based, human
HCT116 cells = experiment: Accelerated senescence (SA-β-gal), HCT116; settings: HCT116, IC90 doses, up to 120 h
Experimental: The accelerated senescence examination was based on the analysis of pH 6.0-dependent β-galactosidase (SA-β-gal) expression together with senescence-related morphology, such as enlarged and flattened cells. HCT116 and H460 cells were seeded in 60 mm plates containing microscope coverslips and treated with UAs for up to 120 h. […] The cells were then washed twice with PBS (pH 6.0) and incubated at pH 6.0 with X-gal (5-bromo-4-chloro-3-indolyl-β-D-[…], substrate for SA-β-gal) staining solution (1 mg/mL X-gal, 40 mmol/L citric acid/sodium phosphate, pH 6.0, 5 mmol/L potassium ferrocyanide, 5 mmol/L potassium ferricyanide, 150 mmol/L NaCl, 2 mmol/L MgCl2). Following overnight incubation at 37 °C, cells were washed twice with PBS and observed under a light microscopy (OLYMPUS BX60; magnification ×200).

[1] = system: MYC gene expression in HCT116 cells; experiment: RT-PCR MYC expression in HCT116; settings: HCT116, IC90 doses, 120 h, 2^-ΔΔCt
Experimental: (§1) HCT116, H460, CCD 841 CoN and MRC-5 cells after treatment with UAs were collected, washed twice with ice-cold PBS and resuspended in […] of PBS. mRNA was isolated using High Pure RNA Isolation Kit according to the manufacturer’s instructions (Roche, Basel, Switzerland). Briefly, cells were lysed in lysis-binding buffer and transferred to a filter tube. Contaminating DNA was removed by 15 min incubation of the filter tube with DNase I solution. The filter tube was washed once with buffer I and twice with buffer II, and after centrifugation, total RNA was eluted using the elution buffer. RNA concentration was determined by NanoDrop One (Thermo Scientific); 1 µg of RNA was reverse transcribed using Transcriptor First Strand cDNA Synthesis Kit according to the manufacturer’s instructions (Roche) in 20 µL of reaction containing 1 µg of RNA, […] anchored-oligo(dT)18Primer, 8 mM MgCl2, 20 U of Protector RNase Inhibitor, deoxynucleotide mix (1 mM each) and 22 U of Transcriptor Reverse Transcriptase. The reverse transcription reaction was carried out for 30 min at 55 °C and stopped by heating to 85 °C for 5 min and placing on ice. The cDNA solution was stored at −20 °C until use. […] The relative expression level of MYC and KRAS was quantified using comparative method […]. The results were obtained from three independent experiments, each of which was analyzed at least twice.

H460 cells = experiment: Apoptosis in H460, summary of all conducted experiments; settings: H460, IC90 doses, 120 h, summary in discussion
Experimental: Nuclear morphology was examined under a fluorescence microscope (OLYMPUS BX60, […]) after staining with Hoechst 33342. Briefly, after drug treatment, HCT116, H460, CCD 841 CoN and MRC-5 cells were spun onto microscopic slides, fixed with methanol:acetic acid (3:1) for 15 min and stained with Hoechst 33342 (1 mg/mL) for 15 min. Cells were regarded as apoptotic based on the presence of condensed, fragmented chromatin. Enlarged cells containing multiple nuclei were considered as typical of mitotic catastrophe.
Annexin V–FITC binding was performed with an Annexin-V Fluos Staining kit (BD Biosciences, San Jose, CA, USA) according to manufacturer’s protocol. […] Cells were incubated for 15 min at room temperature in the dark, then diluted with 400 µL of binding buffer and analyzed by flow cytometry with FACS Accuri C6 (BD, San Jose, CA, USA). Cells with low FITC and PI fluorescence were considered viable. Cells that presented high FITC fluorescence but low PI fluorescence were regarded as early apoptotic. Late apoptotic cells presented high FITC and PI fluorescence. Necrotic cells had low FITC fluorescence and high PI fluorescence.
Caspase-3 activity was determined using Alexa Fluor 647-conjugated anti-active caspase-3 antibody (BD Biosciences, San Diego, CA, USA) according to the manufacturer’s instructions. […]

[2] = system: KRAS gene expression in HCT116 cells; experiment: RT-PCR KRAS expression in HCT116; settings: HCT116, IC90 doses, up to 120 h
Experimental: as §1

Structure (SMILES) | accelerated senescence (SA-β-gal blue staining) (HCT116 cells) | MYC expression, fold increase [1] [fold] | treated cells that underwent apoptosis (H460 cells) | KRAS expression compared to untreated control [2]
O=c1c2ccccc2n2cnc3ccc(NCCCN4CCN(CCCNc5c6ccccc6nc6cccc([N+](=O)[O-])c56)CC4)c1c32 [Compound C-2041] | a few cells with characteristic blue color were observed | 3.3 |  | 
Cc1ccc([N+](=O)[O-])c2c(NCCCN(C)CCCNc3ccc4ncn5c6ccc(O)cc6c(=O)c3c45)c3ccccc3nc12 [Compound C-2045] |  | 5.3 | about 60% | 
Cc1ccc([N+](=O)[O-])c2c(NCCCN(C)CCCNc3ccc4ncn5c6ccccc6c(=O)c3c45)c3ccccc3nc12 [Compound C-2053] |  |  | about 60% | significant difference
